Measurements from PMC8934569 (Cancer chemotherapy and pharmacology, 2021).

Columns and labels:
[1] = system: metastatic malignancy; assay: Tumor response by RECIST version 1.1; assay type: in vivo, human
[2] = Veliparib plasma pharmacokinetics; assay type: in vivo, human
[3] = system: γH2AX in circulating tumor cells (CTCs); assay: Total CTCs and γH2AX-positive CTCs; assay type: in vivo, human; conditions: veliparib and AC
[4] = system: γH2AX in tumor; assay: γH2AX nuclear area positive score; assay type: in vivo, human; conditions: veliparib and AC, paired biopsy, baseline <5%
[5] = system: MX-1 BRCA1 deficient breast cancer model; conditions: cyclophosphamide 12.5 mg/kg/day on days 20, 14, and 27 and veliparib 25 mg/kg/day; cited from earlier work
[6] = system: recombinant cytochrome P450s; conditions: cited from earlier work
[7] = system: metastatic breast cancer; conditions: veliparib with oral cyclophosphamide; cited from earlier work
[8] = Phase I dose escalation
[9] = Group 1 N=31: veliparib Days 1-4 + cyclophosphamide Day 3, all tumor types
[10] = Group 2 N=22: veliparib Days 1-4 + AC Day 3, all tumor types
[11] = Group 3 N=14: veliparib 100 mg every 12 h Days 1-7 + AC Day 1
[12] = Group 4 N=13: veliparib 100 mg every 12 h Days 1-14 + AC Day 1

For C[C@]1(c2nc3c(C(N)=O)cccc3[nH]2)CCCN1 [veliparib, 2-[(R)-2-methylpyrrolidin-2-yl]-1H-benzimidazole-4-carboxamide], the “Overall clinical benefit rate (CBR)” value ([1]; Group 1 (veliparib + cyclophosphamide)) was 13%, the “Complete response (best response achieved)” value (shortened to “Complete response”) [1, 9] was 0 (0) n (%) and the “Stable disease ≥3 months (best response achieved)” value (shortened to “Stable disease ≥3 months”) [1, 9] was 3 (10) n (%). The “Complete response” value [1, 10] was 0 (0) n (%), the “Partial response (best response achieved)” value (from here on “Partial response”) [1, 10] was 4 (18) n (%) and the “Stable disease ≥3 months” value [1, 10] was 5 (23) n (%). The “Complete response” value [1, 11] was 0 (0) n (%), the “Partial response” value [1, 11] was 2 (14) n (%) and the “Stable disease ≥3 months” value [1, 11] was 4 (29) n (%). For the same molecule, the “Complete response” value [1, 12] was 0 (0) n (%), the “Partial response” value [1, 12] was 5 (38) n (%) and the “Stable disease ≥3 months” value [1, 12] was 1 (8) n (%). The Objective response ([1]; V and AC treated groups (11/49)) was 22%, the “Overall clinical benefit rate” value ([1]; all groups (25/80)) was 31% and the “Patients with a BRCA1/2 mutation noted to have PRs” value ([1]; among the 59 metastatic breast cancer patients treated) was 5 patients. For the same molecule, the “AUC0-7 on C1D3 (with combination therapy) compared to C1D1 (alone)” value ([2]; Groups 1 and 2) was “significantly higher”, the “Cmax on C1D3 (with combination therapy) compared to C1D1 (alone)” value ([2]; Groups 1 and 2) was “comparable” and the “Dose proportionality of Cmax and AUC0-7” value ([2]; veliparib administered alone, 50 to 200 mg dose range, C1D1) was “approximately dose-proportional increases”. For the same molecule, the “Change in percentage of γH2AX-positive CTCs from Day 1 to Day 14” value ([3]; groups 3 and 4 combined, p =0.0006) was “significant increase”, the “Change in CTCs from Day 1 to Day 7” value ([3]; groups 3 and 4 combined, p =0.0007) was “significant decrease” and the “Change in CTCs from Day 1 to Day 14” value ([3]; groups 3 and 4 combined, p =0.0009) was “significant decrease”. For the same molecule, the “Change in percentage of γH2AX-positive CTCs from Day 1 to Day 7” value ([3]; groups 3 and 4 combined, p =0.016) was “significant increase”, the “Patients in whom γH2AX-positive CTCs ≥ 50% persisted to day 14” value ([3]; groups 3 and 4, cycle 1) was 10 patients and the “γH2AX nuclear area positive score (%NAP) after treatment” value ([4]; patient with partial response) was 3.23%. The “γH2AX nuclear area positive score (%NAP) after treatment” value ([4]; patient with progressive disease) was 10.96%, the “γH2AX nuclear area positive score (%NAP) after treatment” value ([4]; patient with stable disease) was 5.2% and the “γH2AX nuclear area positive score (%NAP) after treatment” value ([4]; response could not be assessed) was 4.5%. For the same molecule, the “Tumor effect of the combination” value [5] was “tumor regression”, the “P450 involvement in incubations with recombinant cytochrome P450s” value ([6]; known when the study was developed, no reference given) was “potential involvement of CYP1A1, 2D6, 2C19, and 3A4” and the Metabolizing enzymes ([6]; only partially by CYP1A2, 2C19 and 3A4) was “primarily metabolized by CYP2D6”. For the same molecule, the Clinical benefit [7] was 19.2%, the “MTD or recommended phase II dose of veliparib with AC” value ([8]; Group 2: Days 1-4 with AC 60/600 mg/m^2 Day 3 every 21 days) was 100 mg every 12 h and the “No. of Pts with DLTS” value ([8]; Group 3 Level 1b: veliparib 100 mg every 12 h Days 1-7 + cyclophosphamide 600 mg/m^2 + doxorubicin 60 mg/m^2 Day 1, n=14) was 0. The “No. of Pts with DLTS” value ([8]; Group 4 Level 1b: veliparib 100 mg every 12 h Days 1-14 + cyclophosphamide 600 mg/m^2 + doxorubicin 60 mg/m^2 Day 1, n=13) was 0.
